# Measured values: publication PMC6298432 (ACS chemical biology, 2017)
# Tests used:
# [1] = system: FolA (dihydrofolate reductase, DHFR); test: ALIS binding to FolA; set-up: species or system E. coli
# [2] = biological target: FolA (dihydrofolate reductase, DHFR); conditions: cited from earlier work
# E. coli = test: Historical phenotypic screen for inhibitors of E. coli growth; format: cell-based; conditions: active = ≥80% inhibition of bacterial growth
# [3] = system: M. tuberculosis ATCC 27294; test: M. tuberculosis growth inhibition assay; format: cell-based
# [4] = system: Mycobacterium tuberculosis (Mtb); format: cell-based; conditions: active = ≥80% inhibition of bacterial growth
# [5] = system: mouse dihydrofolate reductase; conditions: cited from earlier work
SMILES,Binding to FolA detected in ALIS [1],Activity in E. coli growth phenotypic screen (E. coli),Inhibition of Mtb growth (antibacterial activity) [3],also measured
COc1cc(Cc2cnc(N)nc2N)cc(OC)c1Br [brodimoprim],failure to detect their binding,–,–,–
COc1ccc(Cc2cnc(N)nc2N)cc1OC [Diaveridine],binders detected,active,–,IC50 for FolA [2]: nanomolar
"C#CCN(Cc1cnc2nc(N)nc(N)c2n1)c1ccc(C(=O)N[C@@H](CCC(=O)O)C(=O)O)cc1 [10-PAP, 10-propargylaminopterin]",–,–,retained bioactivity,Activity in Mtb growth phenotypic screen [4]: active; Inhibition of mouse dihydrofolate reductase [5]: inhibit
COc1cc(Cc2cnc(N)nc2N)cc(OC)c1OC [Trimethoprim],–,active,–,–
CN(Cc1cnc2nc(N)nc(N)c2n1)c1ccc(C(=O)N[C@@H](CCC(=O)O)C(=O)O)cc1 [Methotrexate],–,–,no efficacy,–
